{
  "source": "patent US7919620B2",
  "about": "“Agent for suppressing blood pressure elevation” (Coral Biotech Kabushiki Kaisha, priority 2005, dated 2011)",
  "format_in_all_cases": "in vivo, rat",
  "key": {"[1]": {"system": "spontaneously hypertensive rats (SHRs)", "assay": "Animal Experiment 2 (Example 2): systolic pressure of SHRs given sea water- or Si-added feed", "conditions": "for Systolic pressure of SHRs: mean ± SD", "method": "(§1) Twenty-five 7-week-old male SHRs were divided into 5 groups of 5 animals. Four times as much Si as used in Example 1 was added to the feed given to the rats. Otherwise, the animals were tested under the same conditions as in Example 1. Two types of sea water were added to the powder feed: sea water subjected to NaCl-removing treatment by electrical dialysis and ion-exchanged water. The semi-solid feed containing 1.4 wt % NaCl and 40% moisture was prepared by adding the sea water to powdered feed."}, "[2]": {"assay": "Animal Experiment 1 (Example 1): NaCl, water and feed consumption and body weight of SHRs", "method": "(§2) Seven-week-old male SHRs were divided into 5 groups of 6 to 7 animals. Following 1 week of acclimatization, each group was allowed to feed freely on semi-solid feed for 7 to 8 weeks. The feed given was prepared by adding 40 wt % moisture to powdered feed. To ensure that each SHR would develop hypertension, 1 wt % salt was added to the feed. The animals were allowed to freely drink tap water. Over the course of the test period, each animal was weighed and the feed consumption was measured. Blood pressure was taken from the tail vein every four days between 4 PM and 6 PM. After a 12-hour fasting period, the animals were sacrificed. Serum, liver, and kidney were weighed and subjected to analyses.\n(§3) The sea water added was NaCl-removed deep sea water (DW) or NaCl-removed surface sea water (SW) prepared by dialyzation through an electrodialyzer (Asahi Kasei) until the conductivity of monovalent ions was decreased to 10 mS/cm.\n(§4) The Si concentration in the semi-solid feed containing 40% moisture is defined as the amount of Si contained in 1 kg of the feed."}, "[3]": {"system": "spontaneously hypertensive rats (SHRs)", "assay": "Animal Experiment 1 (Example 1): systolic pressure of SHRs given sea water- or Si-added feed", "conditions": "for Systolic pressure of SHRs: mean ± SD", "from_the_text": "In the following examples, spontaneously hypertensive rats (SHRs) were used as experimental animals. The antihypertensive effect of deep sea water was examined by comparison with tap water and surface sea water. […] The samples of the sea water used in the examples were collected by the Deep Seawater Laboratory of Okinawa at a point 3 kilometers off the coast of Kumejima island at depths of 612 m (deep sea water) and 15 m (surface sea water).\nas §2, §3, §4"}, "[4]": {"assay": "Animal Experiment 2 (Example 2): NaCl, water and feed consumption and body weight of SHRs", "method": "as §1"}},
  "note": "Marks after values point to notes of the source that are not given here.",
  "data": [
    {"smiles": "O.O.O.O.O.O.O.O.O.O=[Si]([O-])[O-].[Na+].[Na+]", "note": "[Si, sodium metasilicate nonahydrate]", "values": [
      {"measurement": "Systolic pressure of SHRs", "setting": "[1]; age 7 W", "value": "157 ± 8", "unit": "mmHg"},
      {"measurement": "Systolic pressure of SHRs", "setting": "[1]; age 8 W", "value": "166 ± 12", "unit": "mmHg"},
      {"measurement": "Systolic pressure of SHRs", "setting": "[1]; age 9 W", "value": "168 ± 4", "unit": "mmHg"},
      {"measurement": "Systolic pressure of SHRs", "setting": "[1]; age 10 W", "value": "167 ± 7", "unit": "mmHg"},
      {"measurement": "Systolic pressure of SHRs", "setting": "[1]; age 11 W", "value": "172 ± 7", "unit": "mmHg"},
      {"measurement": "Systolic pressure of SHRs", "setting": "[1]; age 12 W", "value": "179 ± 4", "unit": "mmHg"},
      {"measurement": "Systolic pressure of SHRs", "setting": "[1]; age 13 W", "value": "179 ± 1*^1 mmHg"},
      {"measurement": "Systolic pressure of SHRs", "setting": "[1]; age 14 W", "value": "181 ± 3*^1 mmHg"},
      {"measurement": "Antihypertensive effect (difference in systolic pressure from the control)", "setting": "[1]; end of test period (14 weeks old), p<0.05", "value": "approximately 10 mmHg"},
      {"measurement": "Body weight", "setting": "[2]; 8 weeks", "value": "185.0 ± 12.2", "unit": "g"},
      {"measurement": "Body weight, % of Control", "setting": "[2]; 8 weeks", "value": "[98.2%]"},
      {"measurement": "Body weight", "setting": "[2]; 15 weeks", "value": "287.7 ± 14.7", "unit": "g"},
      {"measurement": "Body weight, % of Control", "setting": "[2]; 15 weeks", "value": "[95.7%]"},
      {"measurement": "Systolic pressure of SHRs", "setting": "[3]; age 7 W", "value": "151.4 ± 9.8", "unit": "mmHg"},
      {"measurement": "Systolic pressure of SHRs", "setting": "[3]; age 8 W", "value": "163.6 ± 7.7", "unit": "mmHg"},
      {"measurement": "Systolic pressure of SHRs", "setting": "[3]; age 9 W", "value": "165.1 ± 9.2", "unit": "mmHg"},
      {"measurement": "Systolic pressure of SHRs", "setting": "[3]; age 10 W", "value": "173.7 ± 12.2", "unit": "mmHg"},
      {"measurement": "Systolic pressure of SHRs", "setting": "[3]; age 11 W", "value": "184.4 ± 11.2", "unit": "mmHg"},
      {"measurement": "Systolic pressure of SHRs", "setting": "[3]; age 12 W", "value": "188.4 ± 10.7", "unit": "mmHg"},
      {"measurement": "Systolic pressure of SHRs", "setting": "[3]; age 13 W", "value": "194.1 ± 10.4", "unit": "mmHg"},
      {"measurement": "Systolic pressure of SHRs", "setting": "[3]; age 14 W", "value": "193.8 ± 11.3*^1 mmHg"},
      {"measurement": "Difference in magnitude of blood pressure elevation vs control group", "setting": "[3]; age 14 weeks (week 6 of treatment), p<0.05", "value": "about 15 mmHg"},
      {"measurement": "Systolic pressure of SHRs", "setting": "[3]; age 15 W", "value": "195.2 ± 9.8*^2 mmHg"},
      {"measurement": "Antihypertensive effect (blood pressure suppression vs control)", "setting": "[3]; end of test period (15 weeks old)", "value": "approximately 23 mmHg"},
      {"measurement": "Body weight", "setting": "[4]; 8 week", "value": "200.3 ± 15.3", "unit": "g"},
      {"measurement": "Body weight, % of Control", "setting": "[4]; 8 week", "value": "[97.6%]"},
      {"measurement": "Body weight", "setting": "[4]; 14 week", "value": "303.4 ± 22.6", "unit": "g"},
      {"measurement": "Body weight, % of Control", "setting": "[4]; 14 week", "value": "[102.4%]"}
    ]}
  ]
}
